Active and inactive are the calls of the source.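 How the source made its calls: active means a tumour-causing dose and a tumour site recorded for mice in at least one sex group; inconclusive means only government mouse studies exist and were judged inadequate; inactive means mouse studies exist but none gave tumours.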
System: mouse carcinogenicity bioassay, TD50 from CPDB
Test: DSSTox (CPDBAS) Carcinogenic Potency Database Summary Mouse Bioassay Results
Conditions: not given
Source text: The Carcinogenic Potency Database (CPDB) is a unique and widely used international resource of the results of over 6500 chronic, long-term animal cancer tests on over 1500 chemical substances. The CPDB provides easy access to the bioassay literature, with qualitative and quantitative analyses of both positive and negative experiments that have been published over the past 50 years in the general literature and by the National Cancer Institute/National Toxicology Program. The CPDB standardizes the diverse literature of cancer bioassays that vary widely in protocol, histopathological examination and nomenclature, and in the published author's choices of what information to provide in their papers. Results are reported in the CPDB for tests in rats, mice, hamsters, dogs, and nonhuman primates, and are based on the most positive result among all experiments for each sex-species. The DSSTox CPDBAS (all species) file incorporates data from the CPDB Summary Tables for the full list of over 1500 chemical substances tested in at least one species. Summary bioassay results for Mouse (TD50, tumor sites, male, female, both sexes) are provided in the CPDB Summary Tables and the DSSTox CPDBAS file for over 1000 chemical substances.
TD50 is a standardized quantitative measure of carcinogenic potency (analogous to an LD50) and is reported in the CPDB Summary Table for each species. Activity Score for actives is computed by mapping of LOG10 (1/TD50_Mouse_mmol) activity values spanning range [MIN, MAX] onto Integer 1-100 Activity Score range, where 100 is highest potency and 1 is lowest: Activity Score = 100 * INTEGER[(log10(1/Activity) - MIN)/(MAX […] MIN)]. If activity is reported but no TD50_Mouse_mmol value is computed, such as for a mixture, the Activity Score is assigned the activity value "50". […] Target sites are reported for each sex-species group with a positive result in the CPDB on the basis of a positive author's opinion for the particular site, using all results from both the general literature and NCI/NTP bioassays. If a chemical has two or more target sites listed, the results may be from different experiments, and a single site may be a target organ in more than one experiment, as well. Blank entry in TargetSites field indicates no results reported.

Row | Compound | Potency
1 | Cc1cc(O)c(C)c2c1OC(C)(CCCC(C)CCCC(C)CCCC(C)C)CC2 (centres undefined) | 8.66 mmol/kg/day

Same assay, conditions: TD50_Mouse_Note: TD50 is harmonic mean of more than one positive test; TargetSites_Mouse_Female: gall bladder; liver; lung

Row | Compound | Potency
2 | CC(C)C/C=N/N(C)C=O | 0.0157 mmol/kg/day

Same assay, conditions: TD50_Mouse_Note: TD50 is harmonic mean of more than one positive test; TargetSites_Mouse_Female: harderian gland; hematopoietic system; lung; mammary gland; uterus

Row | Compound | Potency
3 | C1CO1 | 1.45 mmol/kg/day

Same assay, conditions: TD50_Mouse_Note: TD50 is harmonic mean of more than one positive test; TargetSites_Mouse_Female: harderian gland; lung; subcutaneous tissue

Row | Compound | Potency
4 | OCC(CO)(CBr)CBr | 0.523 mmol/kg/day

Same assay, conditions: TD50_Mouse_Note: TD50 is harmonic mean of more than one positive test; TargetSites_Mouse_Female: harderian gland; stomach

Row | Compound | Potency
5 | C=C(C)CCl | 11 mmol/kg/day

Same assay, conditions: TD50_Mouse_Note: TD50 is harmonic mean of more than one positive test; TargetSites_Mouse_Female: hematopoietic system; lung

Row | Compound | Potency
6 | Cc1ncc([N+](=O)[O-])n1CCO | 2.96 mmol/kg/day

Same assay, conditions: TD50_Mouse_Note: TD50 is harmonic mean of more than one positive test; TargetSites_Mouse_Female: liver

Row | Compound | Potency
7 | CCCCOCCOCCOCc1cc2c(cc1CCC)OCO2 | 0.86 mmol/kg/day
8 | C[C@@H]1Cc2c(Cl)cc(C(=O)N[C@@H](Cc3ccccc3)C(=O)O)c(O)c2C(=O)O1 | 0.0159 mmol/kg/day
9 | Clc1ccc(Cl)cc1 | 2.2 mmol/kg/day
10 | Clc1cc2c(c(Cl)c1Cl)Oc1c(cc(Cl)c(Cl)c1Cl)O2 | 3.66e-06 mmol/kg/day
11 | O=[N+]([O-])c1ccc(Oc2ccc(Cl)cc2Cl)cc1 | 0.405 mmol/kg/day
12 | Cc1ccc(N=Nc2c(O)c(S(=O)(=O)O)cc3ccc(S(=O)(=O)O)cc23)c(C)c1 | 1.49 mmol/kg/day
13 | Cc1ccc(N)cc1 | 0.581 mmol/kg/day
14 | ClC(Cl)(Cl)C(Cl)(Cl)Cl | 1.43 mmol/kg/day
15 | Cc1c([N+](=O)[O-])c(C)c([N+](=O)[O-])c(C(C)(C)C)c1[N+](=O)[O-] | 0.427 mmol/kg/day
16 | COc1ccccc1[N+](=O)[O-] | 1.16 mmol/kg/day
17 | C=CC(O)c1ccc2c(c1)OCO2 (centres undefined) | 0.4 mmol/kg/day
18 | ClC=C(Cl)Cl | 2.61 mmol/kg/day

Same assay, conditions: TD50_Mouse_Note: TD50 is harmonic mean of more than one positive test; TargetSites_Mouse_Female: liver; lung; mammary gland; uterus

Row | Compound | Potency
19 | ClCCCl | 1.39 mmol/kg/day

Same assay, conditions: TD50_Mouse_Note: TD50 is harmonic mean of more than one positive test; TargetSites_Mouse_Female: liver; lung; stomach

Row | Compound | Potency
20 | O=P(OCC(Br)CBr)(OCC(Br)CBr)OCC(Br)CBr (centres undefined) | 0.183 mmol/kg/day

Same assay, conditions: TD50_Mouse_Note: TD50 is harmonic mean of more than one positive test; TargetSites_Mouse_Female: no positive results

Row | Compound | Potency
21 | OC(O)C(Cl)(Cl)Cl | 0.604 mmol/kg/day

Same assay, conditions: TD50_Mouse_Note: TD50 is harmonic mean of more than one positive test; TargetSites_Mouse_Female: stomach

Row | Compound | Potency
22 | C=C(C)CCl | 0.858 mmol/kg/day
23 | C/C=C/C=C/C=O | 1.83 mmol/kg/day
24 | C=CC(=O)OCC | 3.24 mmol/kg/day
25 | O=NN1CCN(N=O)CC1 | 0.025 mmol/kg/day

Same assay, conditions: TD50_Mouse_Note: TD50 is harmonic mean of more than one positive test; TargetSites_Mouse_Female: urinary bladder

Row | Compound | Potency
26 | COc1ccccc1N | 6.05 mmol/kg/day

Same assay, conditions: TD50_Mouse_Note: TD50 is harmonic mean of more than one positive test; greater than ten-fold variation among TD50 values for positive res; TargetSites_Mouse_Female: liver; lung

Row | Compound | Potency
27 | ClC=C(Cl)Cl | 12 mmol/kg/day

Same assay, conditions: TD50_Mouse_Note: TD50 is harmonic mean of more than one positive test; greater than ten-fold variation among TD50 values for positive res; TargetSites_Mouse_Female: stomach

Row | Compound | Potency
28 | NC(=O)/C(=C\c1ccc([N+](=O)[O-])o1)c1ccco1 | 0.528 mmol/kg/day

Same assay, conditions: TD50_Mouse_Note: TD50 is harmonic mean of more than one positive test; greater than ten-fold variation among TD50 values for positive res; TargetSites_Mouse_Female: vascular system

Row | Compound | Potency
29 | Cc1cc(Cl)ccc1N | 0.145 mmol/kg/day

Same assay, conditions: TD50_Mouse_Note: TD50 is harmonic mean of more than one positive test; harmonic mean of TD50 includes a value for upper 99% confidence li; TargetSites_Mouse_Female: liver

Row | Compound | Potency
30 | CCC1(c2ccccc2)C(=O)N=C(O)NC1=O (centres undefined) | 0.117 mmol/kg/day

Same assay, conditions: TD50_Mouse_Note: TD50 is harmonic mean of more than one positive test; no positive results are statistically significant; TargetSites_Mouse_Female: no positive results

Row | Compound | Potency
31 | COc1ccc(O)c(C(C)(C)C)c1 | 30.7 mmol/kg/day

Same assay, conditions: TD50_Mouse_Note: no positive results

Row | Compound | outcome
32 | CCCCCCCCCCCCCCCC(=O)OC/C=C(C)/C=C/C=C(C)/C=C/C1=C(C)CCCC1(C)C | inactive; no positive results
33 | CC1=C[C@H]2O[C@@H]3[C@H](O)C[C@@](C)(C34CO4)[C@@]2(CO)[C@H](O)C1=O (some centres undefined) | inactive; no positive results

Same assay, conditions: TD50_Mouse_Note: no positive results; TargetSites_Mouse_Female: no positive results

Row | Compound | outcome
34 | [S-]c1nc2ccccc2s1.[S-]c1nc2ccccc2s1.[Zn+2] | inactive; no positive results
35 | CC(C)C(C(=O)OC(C#N)c1cccc(Oc2ccccc2)c1)c1ccc(Cl)cc1 (centres undefined) | inactive; no positive results
36 | Oc1ccc(Cl)cc1Cl | inactive; no positive results
37 | CCCCOCCOCCOCc1cc2c(cc1CCC)OCO2 | inactive; no positive results
38 | COc1cc(/C=C/C(=O)CC(=O)/C=C/c2ccc(O)c(OC)c2)ccc1O | inactive; no positive results
39 | CCOP(=S)(OCC)Oc1ccc2c(C)c(Cl)c(=O)oc2c1 | inactive; no positive results
40 | Cc1ccccc1OCC(O)CNCCn1cc(C)c(=O)[nH]c1=O (centres undefined) | inactive; no positive results
41 | CCCCN(CCCC)C(=S)[S-].CCCCN(CCCC)C(=S)[S-].[Zn+2] | inactive; no positive results
42 | CCCOC(=O)C1c2cc3c(cc2CC(C)C1C(=O)OCCC)OCO3 (centres undefined) | inactive; no positive results
43 | O=C1CCCCC1 | inactive; no positive results
44 | O=[N+]([O-])c1ccc(Cl)c([N+](=O)[O-])c1 | inactive; no positive results

Reference: PubChem BioAssay AID1199 (EPA DSSTox, 2008)
